Where a name gives a salt, the structure may show the parent alone.
Legend:
CDK1/CyclinB = target: T1, CDK1/CyclinB (Homo sapiens, UniProt P06493); assay: ADP-Glo Kinase Assay, CDK1/CyclinB; format: biochemical; details: read-out: % inhibition at 1 μM CDK1/CyclinB; also: ATP at apparent Km (20 µM)
T1 construct: purchased Millipore, Billerica, Mass., USA
Experimental: Testing of the compounds described in this invention was carried out using the ADP-Glo™ Kinase Assay from Promega Corporation (Madison, Wis., USA). […] The ADP-Glo™ Kinase Assay is a luminescent ADP detection assay to measure kinase activity by quantifying the amount of ADP produced during a kinase reaction. The kinase assay is performed in kinase assay buffer (5 mM MOPS, pH 7.5, 5 mM MgCl2, 0.4 mM EDTA, 1.5 mM DTT). Test samples initially dissolved in DMSO at 10 mM were diluted with the assay buffer to 1000 nM. A 30 μL volume/well of a mixture of substrates containing ATP (final ATP concentration in each kinase assay was equal to its apparent ATP Km). […] The assay was performed in two steps: first, after the kinase reaction, an equal volume of ADP-Glo™ Reagent was added to terminate the kinase reaction and deplete the remaining ATP. Second, the Kinase Detection Reagent was added to simultaneously convert ADP to ATP and allowed the newly synthesized ATP to be measured using a luciferase/luciferin reaction. The luminescent signal generated was proportional to the ADP concentration produced and was correlated with kinase activity.

HCT116 cells [1] = assay: Matrigel Invasion Chambers, HCT116 invasion; format: cell-based, human; details: increasing concentrations, 22 h, 10% FBS chemoattractant
Experimental: Matrigel Invasion Chambers [catalog number 354480 (BD Biosciences)] are useful to study cell invasion of malignant and normal cells. Matrigel Invasion Chambers can be used to study the mechanisms of invasion and to identify factors that interfere with this process in an in vitro environment. According to standard assays known to the skilled person, 5×10^4 HCT116 cells/ml were added in each case to the upper chamber of the Matrigel Invasion Chambers in the presence of increasing concentrations of “Example 1K”, whereas chemoatractant comprising 10% FBS was added to the lower chamber. The Invasion Chambers were incubated for 22 h in a humidified tissue culture incubator at 37° C., 5% CO2. Non-invading cells were removed by scrubing. The cells on the lower surface of the membrane were then stained with Diff-Quik™ stain. The results shown in FIG. 4 indicate that strong and selective CDK8 inhibitors as the “Example 1K” compound appear to be capable of repressing invasiveness of HCT116 colon cancer cells.

HCT116 cells [2] = assay: Combination with Oxaliplatin, MTS cell viability assay, Chou-Thalay method; format: cell-based, human
From the text: Various well-accepted models exist for determination of synergistic and additive effect for two or more drugs in combination. As a matter of example combination index CI can be used as a quantitative measure of the degree of drug interaction in terms of synergism, additive effects and antagonism for a given endpoint of the measurement:
Synergism (C<1) greater than expected additive effect
Additive effect (CI=1) the combined effect predicted by the mass-action law principle in the absence of synergism or antagonism
Antagonism (CI>1) Smaller than expected additive effect
In the present example, the drug interactions between compound “Example 6” and Oxaliplatin which is a platinum-based type of anticancer chemotherapy medicine used to treat colorectal cancer were tested in HCT116 cells. Experimental data points in the MTS cell viability assay were spread for Oxaliplatin below and above the ED50 values in HCT116 cells, whereas concentration of the tested compounds was close to the apparent ED50. Chou-Thalay method for quantification of synergy was applied [Chou et al. Cancer Res. 15; 70(2):440-6, (2010)].

IL6 = assay: LPS assay, IL-6 ELISA in RAW 264.7; format: cell-based, mouse; details: RAW 264.7, 4 h pre-incubation, LPS 1 μg/ml for 6 h
From the text: (§1) The LPS assay was used to evaluate ability to respond to an inflammatory stimulus by mounting an acute phase response. The acute phase response is characterized by a dramatic increase in the production of a group of proteins by the liver. Bacterial LPS is an endotoxin, a potent inducer of the acute phase response and systemic inflammation. This response is induced by the production of TNFα, IL-1β, and IL-6 from activated monocytes and neutrophils in response to inflammatory stimuli. Evaluation of the three pro-inflammatory cytokines, TNFα, IL-1β, and IL-6, is the current standard method for evaluation of the ability of the immune system to mount an innate inflammatory immune response. In each case, and by methods known to those practiced in the art, RAW 264.7 Mouse leukaemic monocyte macrophage cells were plated at the density of 40 000 cells per well. Next day, cells were pre-incubated with tested compounds (fconc=10 μM) for 4 h and then stimulated with LPS (fconc=1 μg/ml) for 6 h. In the cell culture media IL-6 and TNFα levels were examined by ELISA using BD OptEIA™ Mouse IL-6 ELISA Set Cat. No 555240 and BD OptEIA™ Mouse TNFα ELISA Set Cat. No 555268 (BD Biosciences Pharmingen, SanDiego, Calif., USA), according to manufacturer's instructions.

TNFalpha = assay: LPS assay, TNFα ELISA in RAW 264.7; format: cell-based, mouse; details: RAW 264.7, 4 h pre-incubation, LPS 1 μg/ml for 6 h
From the text: as §1

T1 sequence (P06493 whole entry): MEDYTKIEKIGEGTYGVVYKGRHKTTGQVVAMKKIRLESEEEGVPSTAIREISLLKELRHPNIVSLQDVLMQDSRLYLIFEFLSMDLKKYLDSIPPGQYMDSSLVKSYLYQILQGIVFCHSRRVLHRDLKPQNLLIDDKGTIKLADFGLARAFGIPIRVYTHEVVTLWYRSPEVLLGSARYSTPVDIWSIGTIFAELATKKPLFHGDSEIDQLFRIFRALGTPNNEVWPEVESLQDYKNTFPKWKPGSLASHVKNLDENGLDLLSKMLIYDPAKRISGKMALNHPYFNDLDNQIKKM
T1 sequence (P14635 whole entry partner): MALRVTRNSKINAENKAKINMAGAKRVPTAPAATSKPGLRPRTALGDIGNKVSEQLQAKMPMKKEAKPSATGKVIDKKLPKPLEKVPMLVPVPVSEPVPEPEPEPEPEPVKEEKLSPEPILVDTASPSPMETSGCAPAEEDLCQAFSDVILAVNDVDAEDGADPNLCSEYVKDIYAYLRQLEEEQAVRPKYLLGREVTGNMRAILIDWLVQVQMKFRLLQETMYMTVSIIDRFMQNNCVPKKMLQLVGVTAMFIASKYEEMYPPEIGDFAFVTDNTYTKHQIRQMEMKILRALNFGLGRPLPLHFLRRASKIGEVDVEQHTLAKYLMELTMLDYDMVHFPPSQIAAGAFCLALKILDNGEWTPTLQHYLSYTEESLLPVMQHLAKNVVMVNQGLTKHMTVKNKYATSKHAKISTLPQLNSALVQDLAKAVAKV

inhibition at 1 µM (CDK1/CyclinB) [%] | SMILES | invasiveness of HCT116 cells (FIG. 4) (HCT116 cells [1]) | Combination Index (CI) (HCT116 cells [2]; Example 6 0.6 μM + Oxaliplatin 0.0010 μM) | Combination Index (CI) (HCT116 cells [2]; Example 6 0.6 μM + Oxaliplatin 0.01 μM) | Combination Index (CI) (HCT116 cells [2]; Example 6 0.6 μM + Oxaliplatin 0.1 μM) | Combination Index (CI) (HCT116 cells [2]; Example 6 0.6 μM + Oxaliplatin 1.0 μM) | Combination Index (CI) (HCT116 cells [2]; Example 6 0.6 μM + Oxaliplatin 2.5 μM) | Combination Index (CI) (HCT116 cells [2]; Example 6 0.6 μM + Oxaliplatin 5.0 μM) | LPS-induced IL6 production (FIG. 3) (IL6) | LPS-induced TNFalpha production (FIG. 3) (TNFalpha)
0 | Cc1c(Br)c(Br)c2c3c1nc(N1CCNCC1)n3CCC2 [Example 1K] | Repression of the invasiveness | – | – | – | – | – | – | – | –
38 | Brc1c(Br)c2c3c(nc(N4CCNCC4)n3CCC2)c1Br [Example 6, 7,8,9-tribromo-2-(piperazin-1-yl)-5,6-dihydro-4H-imidazo[4,5,1-ij]quinoline maleate] | – | 1.15 | 0.99 | 1.11 | 0.69 | 0.38 | 0.29 | dose dependent reduction | dose dependent reduction
